# Values quoted from earlier work in US20220395499A1, “C[…] AFTER 5HT2A AGONISTS ADMINISTRATION” (Mind Medicine, Inc., priority 2021, published 2022).
# Where two headings read alike, the source gives them in different places.
# Assays:
# 5HT2A receptor = target: T1, 5HT2A receptor (Homo sapiens, UniProt P28223)
# T1 construct: host or cells: human subjects (in vivo, oral dosing)
# [1] = LSD alone, no dose stated
# [2] = not given; remark: listed apart in the source
# CYP3A4 = CYP3A4 (Homo sapiens, UniProt P08684)
# 5-HT2B receptors = 5-HT2B receptors (Homo sapiens, UniProt P41595)
# [3] = system: adrenergic, dopaminergic, histaminergic, or muscarinic receptors
# [4] = single 34-mg dose of pimavanserin
# T1 sequence (P28223 whole entry): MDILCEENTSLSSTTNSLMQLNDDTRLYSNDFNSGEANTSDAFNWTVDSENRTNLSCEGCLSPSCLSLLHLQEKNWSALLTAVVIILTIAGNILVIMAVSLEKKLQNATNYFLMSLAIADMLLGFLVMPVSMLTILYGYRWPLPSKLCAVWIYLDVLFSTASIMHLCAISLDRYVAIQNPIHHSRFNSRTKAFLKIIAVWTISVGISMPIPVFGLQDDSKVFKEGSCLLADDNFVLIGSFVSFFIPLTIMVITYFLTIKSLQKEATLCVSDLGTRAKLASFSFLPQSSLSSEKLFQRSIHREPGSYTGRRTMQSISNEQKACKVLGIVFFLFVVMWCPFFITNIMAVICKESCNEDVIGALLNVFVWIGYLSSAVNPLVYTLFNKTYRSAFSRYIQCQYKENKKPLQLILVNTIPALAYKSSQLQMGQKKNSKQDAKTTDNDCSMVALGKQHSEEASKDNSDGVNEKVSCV
# CYP3A4, sequence (P08684 whole entry): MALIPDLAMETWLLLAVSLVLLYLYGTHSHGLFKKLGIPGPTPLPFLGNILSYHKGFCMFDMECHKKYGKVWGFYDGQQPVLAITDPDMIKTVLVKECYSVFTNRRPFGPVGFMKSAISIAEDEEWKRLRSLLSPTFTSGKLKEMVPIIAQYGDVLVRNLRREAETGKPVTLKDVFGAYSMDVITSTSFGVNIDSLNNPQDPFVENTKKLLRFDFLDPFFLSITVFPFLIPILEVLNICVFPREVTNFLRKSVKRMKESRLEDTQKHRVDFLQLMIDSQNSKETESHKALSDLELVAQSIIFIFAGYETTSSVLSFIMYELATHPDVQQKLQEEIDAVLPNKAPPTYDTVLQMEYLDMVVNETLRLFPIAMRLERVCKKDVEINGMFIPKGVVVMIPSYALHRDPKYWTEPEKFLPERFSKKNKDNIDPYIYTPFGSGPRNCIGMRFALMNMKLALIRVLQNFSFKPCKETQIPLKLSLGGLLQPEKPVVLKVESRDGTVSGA
# 5-HT2B receptors, sequence (P41595 whole entry): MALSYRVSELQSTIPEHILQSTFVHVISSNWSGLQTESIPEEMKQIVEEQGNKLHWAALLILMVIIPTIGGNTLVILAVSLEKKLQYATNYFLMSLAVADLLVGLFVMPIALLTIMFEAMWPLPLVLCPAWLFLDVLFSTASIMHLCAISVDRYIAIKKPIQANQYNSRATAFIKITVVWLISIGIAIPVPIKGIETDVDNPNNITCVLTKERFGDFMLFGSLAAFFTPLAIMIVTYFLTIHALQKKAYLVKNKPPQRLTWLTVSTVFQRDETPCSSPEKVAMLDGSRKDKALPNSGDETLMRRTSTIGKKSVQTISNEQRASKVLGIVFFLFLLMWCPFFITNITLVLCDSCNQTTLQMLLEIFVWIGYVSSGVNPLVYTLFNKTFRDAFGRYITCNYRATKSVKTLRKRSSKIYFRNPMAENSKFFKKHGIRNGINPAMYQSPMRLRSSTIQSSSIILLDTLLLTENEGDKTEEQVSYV
smiles,measurement,setting,value
O=C(c1ccc(F)cc1)C1CCN(CCn2c(=O)[nH]c3ccccc3c2=O)CC1 [ketanserin],effect on the LSD experience,"5HT2A receptor; ketanserin 40 mg orally 1 hour prior to a high dose of LSD of 200 μg, Liechti",prevented the LSD experience
same,effect on the LSD experience,"5HT2A receptor; ketanserin 40 mg orally 1 hour prior to oral LSD at a moderate dose (70-100 μg), Preller et al., 2017",prevent the LSD experience almost completely
"CCN(CC)C(=O)[C@@H]1C=C2c3cccc4[nH]cc(c34)C[C@H]2N(C)C1 [LSD, Lysergic acid diethylamide]",usual duration of action,[1],8 to 12 h
CC(C)COc1ccc(CNC(=O)N(Cc2ccc(F)cc2)C2CCNCC2)cc1 [AC-279],half-life of the active N-desmethylated metabolite,metabolite of pimavanserin,200 h
"CC(C)COc1ccc(CNC(=O)N(Cc2ccc(F)cc2)C2CCN(C)CC2)cc1 [Pimavanserin, pimavanserin]",half-life,[4],approximately 57 hours
same,mean (SD) apparent volume of distribution,[4],"2,173 (307) L"
same,time to maximum plasma concentration,[4],six
same,plasma protein binding,[2],highly bound to plasma protein
same,CYP3A4 inhibition or induction,CYP3A4,does not cause significant CYP3A4 inhibition or induction
same,affinity for 5-HT2B receptors,5-HT2B receptors,no affinity
same,"antagonism of adrenergic, dopaminergic, histaminergic, or muscarinic receptors",[3],does not induce clinically significant antagonism
